In patent publication EP4703354A1, “COMPOUND AS CCR6 ANTAGONIST, AND PHARMACEUTICAL COMPOSITION AND USE THEREOF” (Wuhan Createrna Science and Technology Co.,Ltd., priority 2023, dated 2024):
Like-named read-outs stand apart in the source and are kept apart here.

Legend:
[1] = in vivo pharmacokinetic study in SD rats; conditions: rat; for bioavailability: 1 mg/kg PO vs 1 mg/kg IV, read-out: Oral bioavailability F (%); for AUC(0-t) / Cmax / half-life: 1 mg/kg
Method in brief: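 Male SD rats (180-200 g), 3 per route: single fasted oral gavage in 1% Tween 80 or tail-vein IV bolus in 50% PEG400. Orbital blood into EDTA-K2 sampled to 8 h; plasma analysed and PK parameters derived by non-compartmental analysis.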

[2] = in vitro liver microsome metabolic stability, rat; type: in vitro ADME; conditions: Rat liver microsomes, 37°C
Description: (§1) Preparation of working solutions for test compounds and standards: An appropriate amount of the compound was accurately weighed and dissolved in a corresponding volume of suitable solvent to prepare 1 mM stock solutions of the test compounds and standards. The stock solutions were then diluted with appropriate solvent to obtain 100 µM working solutions of the test compounds, ensuring that the DMSO content in the working solutions remained below 10%.
(§2) The internal standard compound testosterone (or tolbutamide) and its corresponding solvent, internal standard concentration (200 ng/mL), were selected based on the properties of the test compound.
(§3) • Solution A: 0.1 mol/L K2HPO4 (2.28 g K2HPO4·3H2O was dissolved in 100 mL of double-distilled water); • Solution B: 0.1 mol/L KH2PO4 (1.36 g KH2PO4 was dissolved in 100 mL of double-distilled water); • 80.2 mL of Solution A and 19.8 mL of Solution B were mixed thoroughly, and the pH was adjusted to 7.4.
(§4) 37.5 mg of glycine was weighed, dissolved in 100 mL of ultrapure water, and adjusted to pH 8.0 with NaOH.
(§5) 1.25 mg of glucose-6-phosphate dehydrogenase (400 U/mg) was weighed (the specific amount weighed was calculated based on the activity of the purchased glucose-6-phosphate dehydrogenase), dissolved in 1 mL of glycine buffer to a concentration of 500 U/mL, aliquoted into 20 µL per tube, and stored at -20°C for future use.
(§6) 7.83 mg of NADP, 0.06 mL of D-glucose-6-phosphate (260 mg/mL), and 10.17 mg of MgCl2·6H2O were precisely weighed.
(§7) The mixture was dissolved in 1 mL of pure water. The cofactor ratio composition: NADP 10 mM, D-glucose-6-phosphate 60 mM, MgCl2·6H2O 50 mM.
(§8) The reaction system (taking a 500 µL system as an example) was composed of the following solution ratios: 416.5 µL phosphate buffer, 5 µL compound working solution, 25 µL liver microsomes, 3.5 µL glucose-6-phosphate dehydrogenase, and 50 µL cofactor solution. The total incubation volume could be adjusted according to experimental requirements.
(§9) 416.5 µL of phosphate buffer was taken, 25 µL of liver microsomes, 3.5 µL of glucose-6-phosphate dehydrogenase, and 50 µL of cofactor solution were added, vortexed twice to mix, and preincubated in a 37°C water bath for 5 minutes. Then, 5 µL of the test compound working solution was added, vortexed twice to mix, each time for 2-3 seconds, and placed in a 37°C water bath to initiate the reaction, with two parallel samples set. At 0.5 min, 1 min, 2 min, 5 min, 15 min, and 30 min after the reaction, 50 µL of the mixture was taken and added to centrifuge tubes containing 200 µL of 0°C pre-cooled internal standard working solution to terminate the reaction, vortexed for 1 minute to mix, and centrifuged at 13,000 rpm for 10 minutes in a 4°C pre-cooled high-speed centrifuge. The supernatant was collected for analysis. After the compound was added and vortex-mixed, 50 µL of the mixture was rapidly transferred to a centrifuge tube containing 200 µL of a pre-cooled (0°C) internal standard working solution to terminate the reaction, vortex-mixed for 1 minute, and used as the relative zero-point sample (relative to the standard group). The sample was then placed into a 37°C water bath to initiate the reaction, and timing was started.
(§10) The sample analysis of the test compound was performed using the liquid chromatography-tandem mass spectrometry (LCMS/MS) method. The semi-quantitative determination was performed using the ratio of the analyte peak area to the internal standard peak area. The retention times of the analyte and internal standard, chromatogram acquisition, and chromatogram integration were processed using Analyst software.
(§11) The in vitro elimination rate constant k of the test compound and the control compound was determined by converting the ratio of the peak area of the test compound to the internal standard into the remaining rate, and T1/2 was then calculated according to the following formula. T1/2 = (Ln2)/(k) = (0.693)/(k) [formula] Table 3. […]

[3] = in vitro liver microsome metabolic stability, human; type: in vitro ADME; conditions: Human liver microsomes, 37°C
Description: as §1, §2, §3, §4, §5, §6, §7, §8, §9, §10, §11

[4] = in vitro liver microsome metabolic stability, beagle dog; type: in vitro ADME; conditions: Beagle dog liver microsomes, 37°C
Description: as §1, §2, §3, §4, §5, §6, §7, §8, §9, §10, §11

human CCR6 = biological target: T1, human CCR6 (Homo sapiens, UniProt P51684); test: human CCR6 calcium flux activity (FLIPR, HEK293 cells stably expressing human CCR6, CCL20 stimulation); type: cell-based; conditions: for IC50: HEK293 cells stably expressing human CCR6, EC80 human MIP-3 alpha/CCL20, read-out: CCR6 inhibitory activity, IC50; for CCR6 selectivity: ratio of CXCR2 IC50 to CCR6 IC50
T1 construct: expressed in transfected cells; host or cells: HEK293
T1 sequence (P51684 1-374): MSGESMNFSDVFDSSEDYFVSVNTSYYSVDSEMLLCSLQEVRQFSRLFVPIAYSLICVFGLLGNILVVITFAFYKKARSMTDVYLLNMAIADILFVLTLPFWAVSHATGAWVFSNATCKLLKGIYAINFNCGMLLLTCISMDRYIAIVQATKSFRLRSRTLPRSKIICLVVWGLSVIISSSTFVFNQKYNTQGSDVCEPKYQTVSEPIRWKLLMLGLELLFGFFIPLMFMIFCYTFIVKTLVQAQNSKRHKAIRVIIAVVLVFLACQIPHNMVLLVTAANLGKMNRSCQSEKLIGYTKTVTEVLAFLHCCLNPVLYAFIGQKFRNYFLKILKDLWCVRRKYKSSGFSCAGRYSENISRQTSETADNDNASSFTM
Method in brief: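 Read-out is the RFUMax−RFUMin calcium signal (494/516 nm, 90 s) after EC80 CCL20 addition, fitted four-parameter for IC50. Before agonist, Fluo-4 Direct-loaded cells sat with compound 50 min at 37 °C plus 10 min at room temperature.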

human CXCR2 = biological target: T2, human CXCR2 (Homo sapiens, UniProt P25025); test: human CXCR2 calcium flux activity (FLIPR, HEK293 cells stably expressing human CXCR2, IL-8 stimulation); type: cell-based; conditions: HEK293 cells stably expressing human CXCR2, EC80 human IL-8; read-out: CXCR2 inhibitory activity, IC50
T2 construct: expressed in transfected cells; host or cells: HEK293
T2 sequence (P25025 1-360): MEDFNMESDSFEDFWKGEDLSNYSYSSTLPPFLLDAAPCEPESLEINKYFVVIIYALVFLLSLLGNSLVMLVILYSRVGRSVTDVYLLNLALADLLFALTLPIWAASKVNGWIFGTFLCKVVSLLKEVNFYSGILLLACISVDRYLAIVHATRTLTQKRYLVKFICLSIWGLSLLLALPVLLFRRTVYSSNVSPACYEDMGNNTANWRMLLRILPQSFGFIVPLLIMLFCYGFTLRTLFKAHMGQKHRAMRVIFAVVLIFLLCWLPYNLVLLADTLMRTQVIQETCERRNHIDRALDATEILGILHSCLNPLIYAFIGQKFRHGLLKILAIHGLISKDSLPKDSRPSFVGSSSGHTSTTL
Description: The activity of the compounds was evaluated using HEK293 cells stably expressing human CXCR2 via the FLIPR platform. A 384-well black cell culture plate (Greiner, 781946) was used, with a seeding density of 20,000 cells/well, and incubated overnight at 37°C in a 5% CO2 incubator. The culture medium in the cell plate wells was removed, and 20 µL of Fluo-4 Direct™ Calcium Assay Buffer (Invitrogen, F10471, Component C), 20 µL of 2× Fluo-4 Direct™ Calcium Assay Reagent (Invitrogen, F10471, Component A) working solution, and 10 µL of 6× test compound working solution were sequentially added to each well. The cell plate was incubated in a 37 °C, 5% CO2 incubator for 50 min, followed by a 10 min incubation at room temperature. Additionally, a 6×EC80 human IL-8 (Sigma, SRP3311) working solution was prepared. After the incubation was completed, 10 µL/well of the 6×EC80 human IL-8 working solution was transferred to the corresponding cell wells using a FLIPR instrument, and the fluorescence signal changes at an excitation wavelength of 494 nm and an emission wavelength of 516 nm were recorded over 130 s. The difference between the maximum fluorescence signal (RFUMax) and the minimum fluorescence signal (RFUMin) was used as the output signal. The compound inhibition rate and the log value of the compound concentration were calculated, and a four-parameter fitting analysis was performed using GraphPad Prism 8 software to obtain the IC50 value of the test compound. Table 1. Inhibitory activity data of compounds against CCR6 and CXCR2

SMILES | Liver microsome T1-2 (min) Rat [2] [min] | Liver microsome T1-2 (min) Human [3] [min] | Liver microsome T1-2 (min) Beagle dog [4] [min] | IC50 (human CCR6) [nM] | IC50 (human CXCR2) [µM] | CCR6 selectivity (human CCR6) | also measured
Cc1ccc(F)nc1[C@H](Nc1c(Nc2ccnc(C(=O)N(C)C)c2O)c(=O)c1=O)C1(C)CCCC1 [compound 014, (R)-4-((2-(((6-fluoro-3-methylpyridin-2-yl)(1-methylcyclopentyl)methyl)amino)-3,4-dioxocyclobut-1-en-1-yl)amino)-3-hydroxy-N,N-dimethylpicolinamide] |  |  |  | 14.3 | 6.74 | 471.4 | 
CN(C)C(=O)c1nccc(Nc2c(N[C@@H](c3ncccc3CF)C3(C)CCCC3)c(=O)c2=O)c1O [compound 016, (R)-4-((2-(((3-(fluoromethyl)pyridin-2-yl)(1-methylcyclopentyl)methyl)amino)-3,4-dioxocyclobut-1-en-1-yl)amino)-3-hydroxy-N,N-dimethylpicolinamide] |  |  |  | 55.8 | 27.6 | 494.9 | 
CN(C)C(=O)c1nccc(Nc2c(N[C@@H](c3ncccc3Cl)C3(C)CCCC3)c(=O)c2=O)c1O [compound 019, (R)-4-((2-(((3-chloropyridin-2-yl)(1-methylcyclopentyl)methyl)amino)-3,4-dioxocyclobut-1-en-1-yl)amino)-3-hydroxy-N,N-dimethylpicolinamide] |  |  |  | 5 | 1.82 | 364.2 | 
Cc1nccnc1[C@H](Nc1c(Nc2ccc(Cl)c(C(=O)N(C)C)c2O)c(=O)c1=O)C1(C)CCCC1 [compound 078, (R)-6-chloro-2-hydroxy-N,N-dimethyl-3-((2-(((1-methylcyclopentyl)(3-methylpyrazin-2-yl)methyl)amino)-3,4-dioxocyclobut-1-en-1-yl)amino)benzamide] | 53.62 | 1014.44 | 1869.75 | 56.2 |  |  | 
Cc1cccnc1[C@H](Nc1c(Nc2ccc(F)c(C(=O)N(C)C)c2O)c(=O)c1=O)C1(C)CC(F)(F)C1 [compound 089, (R)-3-((2-(((3,3-difluoro-1-methylcyclobutyl)(3-methylpyridin-2-yl)methyl)amino)-3,4-dioxocyclobut-1-en-1-yl)amino)-6-fluoro-2-hydroxy-N,N-dimethylbenzamide] | 88.93 | 331.10 | 258.52 |  |  |  | bioavailability ([1]; male, plasma): 21.1%; AUC(0-t) ([1]; male, plasma, IV): 772 ng·h/mL; Cmax ([1]; male, plasma, IV): 4300 ng/mL; AUC(0-t) ([1]; male, plasma, PO): 163 ng·h/mL; Cmax ([1]; male, plasma, PO): 96.4 ng/mL; half-life ([1]; male, plasma, PO): 157 min
CN(C)C(=O)c1nccc(Nc2c(NC(c3nc(C(F)(F)F)ccc3F)C3(C)CC(F)(F)CO3)c(=O)c2=O)c1O (centres unmarked) [compound 098] | 195.59 | 208.30 | 102.59 |  |  |  | bioavailability ([1]; in vivo): 21.6%; AUC(0-t) ([1]; in vivo, IV): 630 ng·h/mL; Cmax ([1]; in vivo, IV): 2740 ng/mL; AUC(0-t) ([1]; in vivo, PO): 136 ng·h/mL; Cmax ([1]; in vivo, PO): 102 ng/mL; half-life ([1]; in vivo, PO): 164 min

The next lines start with results.

Liver microsome T1-2 (min) Rat [2] [min] | Liver microsome T1-2 (min) Human [3] [min] | Liver microsome T1-2 (min) Beagle dog [4] [min] | SMILES | IC50 (human CCR6) [nM] | IC50 (human CXCR2) [µM] | CCR6 selectivity (human CCR6) | also measured
216.24 | 158.82 | 222.45 | Cc1cccnc1[C@H](Nc1c(Nc2ccnc(C(=O)N(C)C)c2O)c(=O)c1=O)[C@]1(C)CC(F)(F)CO1 (single isomer, unassigned) [128B] |  |  |  | bioavailability ([1]; male, plasma): 36.7%; AUC(0-t) ([1]; male, plasma, IV): 910 ng·h/mL; Cmax ([1]; male, plasma, IV): 3270 ng/mL; AUC(0-t) ([1]; male, plasma, PO): 334 ng·h/mL; Cmax ([1]; male, plasma, PO): 182 ng/mL
54.23 | 345.84 | 252.63 | CN(C)C(=O)c1nccc(Nc2c(N[C@@H](c3ccc(Cl)cn3)C3(C)CCCC3)c(=O)c2=O)c1O [compound 013, (R)-4-((2-(((5-chloropyridin-2-yl)(1-methylcyclopentyl)methyl)amino)-3,4-dioxocyclobut-1-en-1-yl)amino)-3-hydroxy-N,N-dimethylpicolinamide] | 19.3 |  |  | 
266.64 | 548.28 | 982.5 | CC#CC(Nc1c(Nc2ccnc(C(=O)N(C)C)c2O)c(=O)c1=O)C1(C)CCC(F)(F)C1 (centres unmarked) [compound 111, 4-((2-((1-(3,3-difluoro-1-methylcyclopentyl)but-2-yn-1-yl)amino)-3,4-dioxocyclobut-1-en-1-yl)amino)-3-hydroxy-N,N-dimethylpicolinamide] | 106 |  |  | 
